Measurements as given in PubChem BioAssay (NCI).
In brackets after ≈: the same amount, converted by molar mass.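 Test compounds were applied to cells in 96-well plates for 48 hours at 5 doses. GI50: concentration for 50% inhibition of growth. TGI marks complete inhibition of growth.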

Columns and labels:
Test in all cases: growth of human tumour cells (NCI), 48 h
SR leukemia = system: SR leukemia
786-0 renal = system: 786-0 renal
HL-60(TB) leukemia = system: HL-60(TB) leukemia
SK-OV-3 ovarian = system: SK-OV-3 ovarian
ACHN renal = system: ACHN renal
CCRF-CEM leukemia = system: CCRF-CEM leukemia
TK-10 renal = system: TK-10 renal
U251 CNS = system: U251 CNS
EKVX NSCLC = system: EKVX NSCLC
A498 renal = system: A498 renal
BT-549 breast = system: BT-549 breast
HS 578T breast = system: HS 578T breast
NCI-H460 lung = system: NCI-H460 lung
SF-268 CNS = system: SF-268 CNS
NCI-H23 lung = system: NCI-H23 lung
LOX IMVI melanoma = system: LOX IMVI melanoma
SN12C renal = system: SN12C renal
T-47D breast = system: T-47D breast
OVCAR-5 ovarian = system: OVCAR-5 ovarian
NCI-H522 lung = system: NCI-H522 lung
IGROV1 ovarian = system: IGROV1 ovarian
HCC-2998 colon = system: HCC-2998 colon
COLO 205 colon = system: COLO 205 colon
A549 NSCLC = system: A549 NSCLC
MCF7 breast = system: MCF7 breast
MDA-MB-231 breast = system: MDA-MB-231 breast
OVCAR-3 ovarian = system: OVCAR-3 ovarian
HOP-92 NSCLC = system: HOP-92 NSCLC
K-562 leukemia = system: K-562 leukemia
NCI-H226 lung = system: NCI-H226 lung
MDA-MB-435 = system: MDA-MB-435
MALME-3M melanoma = system: MALME-3M melanoma
HOP-62 NSCLC = system: HOP-62 NSCLC
OVCAR-4 ovarian = system: OVCAR-4 ovarian
RPMI-8226 leukemia = system: RPMI-8226 leukemia
SF-295 CNS = system: SF-295 CNS
SNB-19 CNS = system: SNB-19 CNS
HCT-116 colon = system: HCT-116 colon
UACC-257 melanoma = system: UACC-257 melanoma
PC-3 prostate = system: PC-3 prostate
OVCAR-8 ovarian = system: OVCAR-8 ovarian
SNB-75 CNS = system: SNB-75 CNS
HCT-15 colon = system: HCT-15 colon
M14 melanoma = system: M14 melanoma
SW-620 colon = system: SW-620 colon
SK-MEL-5 melanoma = system: SK-MEL-5 melanoma
UO-31 renal = system: UO-31 renal
MOLT-4 leukemia = system: MOLT-4 leukemia
SK-MEL-28 melanoma = system: SK-MEL-28 melanoma
KM12 colon = system: KM12 colon
UACC-62 melanoma = system: UACC-62 melanoma
SK-MEL-2 melanoma = system: SK-MEL-2 melanoma
HT29 colon = system: HT29 colon
RXF 393 renal = system: RXF 393 renal
SF-539 CNS = system: SF-539 CNS
NCI/ADR-RES ovarian = system: NCI/ADR-RES ovarian

**Q.** With `O=C1NC(=O)C(Cc2cccc(OCc3ccccc3)c2)C(=O)N1` as the compound, how does the GI50 (SR leukemia) read?
**A.** 4.07 µg/mL (≈ 12.6 µM)

**Q.** Which results are given for `CCN1CCN(c2cc(C)nc(N(CCCNc3ccnc4cc(Cl)ccc34)Cc3ccc4c(c3)OCO4)n2)CC1`?
**A.** GI50 (786-0 renal): 1.81 µM; TGI (786-0 renal): 3.8 µM; GI50 (HL-60(TB) leukemia): 1.9 µM; TGI (HL-60(TB) leukemia): 4 µM; GI50 (SK-OV-3 ovarian): 14.8 µM; TGI (SK-OV-3 ovarian): 34.8 µM; GI50 (ACHN renal): 3.16 µM; TGI (ACHN renal): 10.6 µM; GI50 (CCRF-CEM leukemia): 2.38 µM; TGI (CCRF-CEM leukemia): 7.43 µM; GI50 (TK-10 renal): 1.84 µM; TGI (TK-10 renal): 3.87 µM; GI50 (U251 CNS): 2.13 µM; TGI (U251 CNS): 4.73 µM; GI50 (EKVX NSCLC): 4.56 µM; TGI (EKVX NSCLC): > 100 µM; GI50 (A498 renal): 3.66 µM; TGI (A498 renal): 20.8 µM; GI50 (BT-549 breast): 2.72 µM; TGI (BT-549 breast): 8.5 µM; GI50 (HS 578T breast): 1.93 µM; TGI (HS 578T breast): 5.26 µM; GI50 (NCI-H460 lung): 3.07 µM; TGI (NCI-H460 lung): 11.2 µM; GI50 (SF-268 CNS): 2.57 µM; TGI (SF-268 CNS): 7.9 µM; GI50 (NCI-H23 lung): 7.4 µM; TGI (NCI-H23 lung): > 100 µM; GI50 (LOX IMVI melanoma): 1.89 µM; TGI (LOX IMVI melanoma): 3.7 µM; GI50 (SN12C renal): 4.13 µM; TGI (SN12C renal): > 100 µM; GI50 (T-47D breast): 2.26 µM; TGI (T-47D breast): 4.88 µM; GI50 (OVCAR-5 ovarian): 5.32 µM; TGI (OVCAR-5 ovarian): > 100 µM; GI50 (NCI-H522 lung): 2.03 µM; TGI (NCI-H522 lung): 4.76 µM; GI50 (IGROV1 ovarian): 3.46 µM; TGI (IGROV1 ovarian): 16.7 µM; GI50 (HCC-2998 colon): 2.4 µM; TGI (HCC-2998 colon): 5.39 µM; GI50 (COLO 205 colon): 1.72 µM; TGI (COLO 205 colon): 3.39 µM; GI50 (A549 NSCLC): 3.67 µM; TGI (A549 NSCLC): > 100 µM; GI50 (MCF7 breast): 2.88 µM; TGI (MCF7 breast): 21.5 µM; GI50 (MDA-MB-231 breast): 1.93 µM; TGI (MDA-MB-231 breast): 4.44 µM; GI50 (OVCAR-3 ovarian): 2.35 µM; TGI (OVCAR-3 ovarian): 6.09 µM; GI50 (HOP-92 NSCLC): 1.61 µM; TGI (HOP-92 NSCLC): 4.67 µM; GI50 (K-562 leukemia): 1.91 µM; TGI (K-562 leukemia): 7.86 µM; GI50 (NCI-H226 lung): 32.8 µM; TGI (NCI-H226 lung): > 100 µM; GI50 (MDA-MB-435): 1.77 µM; TGI (MDA-MB-435): 3.3 µM; GI50 (MALME-3M melanoma): 1.87 µM; TGI (MALME-3M melanoma): 3.5 µM; GI50 (HOP-62 NSCLC): 2.73 µM; TGI (HOP-62 NSCLC): 31.6 µM; GI50 (OVCAR-4 ovarian): 3.05 µM; TGI (OVCAR-4 ovarian): 25.1 µM; GI50 (RPMI-8226 leukemia): 1.8 µM; TGI (RPMI-8226 leukemia): 4.49 µM; GI50 (SF-295 CNS): 1.91 µM; TGI (SF-295 CNS): 3.82 µM; GI50 (SNB-19 CNS): 4.16 µM; TGI (SNB-19 CNS): 52 µM; GI50 (HCT-116 colon): 2.45 µM; TGI (HCT-116 colon): 13.6 µM; GI50 (UACC-257 melanoma): 1.72 µM; TGI (UACC-257 melanoma): 3.23 µM; GI50 (PC-3 prostate): 3.6 µM; TGI (PC-3 prostate): > 100 µM; GI50 (OVCAR-8 ovarian): 3.19 µM; TGI (OVCAR-8 ovarian): 14.4 µM; GI50 (SNB-75 CNS): 1.59 µM; TGI (SNB-75 CNS): 3.57 µM; GI50 (HCT-15 colon): 2.24 µM; TGI (HCT-15 colon): 8.42 µM; GI50 (M14 melanoma): 1.89 µM; TGI (M14 melanoma): 3.5 µM; GI50 (SW-620 colon): 2.81 µM; TGI (SW-620 colon): 12.5 µM; GI50 (SK-MEL-5 melanoma): 1.7 µM; TGI (SK-MEL-5 melanoma): 3.13 µM; GI50 (UO-31 renal): 1.51 µM; TGI (UO-31 renal): 3.08 µM; GI50 (MOLT-4 leukemia): 2.84 µM; TGI (MOLT-4 leukemia): > 100 µM; GI50 (SK-MEL-28 melanoma): 1.84 µM; TGI (SK-MEL-28 melanoma): 3.46 µM; GI50 (KM12 colon): 4.14 µM; TGI (KM12 colon): > 100 µM; GI50 (UACC-62 melanoma): 1.85 µM; TGI (UACC-62 melanoma): 3.51 µM; GI50 (SK-MEL-2 melanoma): 2.14 µM; TGI (SK-MEL-2 melanoma): 4.74 µM; GI50 (HT29 colon): 1.95 µM; TGI (HT29 colon): 5.79 µM; GI50 (RXF 393 renal): 1.52 µM; TGI (RXF 393 renal): 3.38 µM; GI50 (SF-539 CNS): 1.73 µM; TGI (SF-539 CNS): 3.21 µM; GI50 (NCI/ADR-RES ovarian): 3.22 µM; TGI (NCI/ADR-RES ovarian): 58.5 µM
